Results from the Kinase Knowledgebase extract (Sharma et al. 2016).

What follows are molecules tested against CDK2 (UniProt P24941) (assay: Enzyme Assay).

IC50, 0.1 to 100 nM:
CNC(=O)c1ccc(CNc2cc(-c3ccccc3F)nc3c(Br)cnn23)cc1
[O-][n+]1cccc(CNc2cc(N3CCC[C@H]3CO)nc3c(Br)cnn23)c1
CC(C)Oc1ccc(CNc2cc(-c3ccccc3F)nc3c(Br)cnn23)c[n+]1[O-]
Brc1cnn2c(NCc3cccnc3)cc(C3CCOCC3)nc12
OCC1CCCCN1c1cc(NCc2cccnc2)n2ncc(Br)c2n1 (configuration not stated)
CC(C)c1cc(NCc2ccc[n+]([O-])c2)n2ncc(Br)c2n1
OCCC1CCCCN1c1cc(NCc2cccnc2)n2ncc(Br)c2n1 (configuration not stated)
Brc1cnn2c(NCc3ccc4[nH]cnc4c3)cc(C3CCNCC3)nc12
CC(C)(O)[C@@H]1CCCN1c1cc(NCc2ccc[n+]([O-])c2)n2ncc(Br)c2n1
OCC[C@@H]1CCCN1c1cc(NCc2cccnc2)n2ncc(Br)c2n1
CC(=O)N1CCCC(c2cc(NCc3cccnc3)n3ncc(Br)c3n2)C1 (configuration not stated)
COc1c(Cl)cc(CNc2cc(-c3ccccc3)nc3c(Br)cnn23)c[n+]1[O-]
[O-][n+]1cccc(CNc2cc(C3CCNCC3)nc3c(Br)cnn23)c1
CCc1cnn2c(NCc3ccc[n+]([O-])c3)cc(-c3ccccc3)nc12
CC(C)[C@@H](CO)Nc1cc(NCc2ccc[n+]([O-])c2)n2ncc(Br)c2n1
Fc1ccccc1-c1cc(NCc2ccc3[nH]cnc3c2)n2ncc(Br)c2n1
Nc1ncc(CNc2cc(C3CCCNC3)nc3c(Br)cnn23)cn1 (configuration not stated)
COc1ccc(CNc2cc(-c3ccccc3F)nc3c(Br)cnn23)c[n+]1[O-]
NC(=O)N1CCCC(c2cc(NCc3cccnc3)n3ncc(Br)c3n2)C1 (configuration not stated)
[O-][n+]1cccc(CNc2cc(C3CCOCC3)nc3c(Br)cnn23)c1
CC(C)(O)[C@H]1CCCC[C@H]1c1cc(NCc2cccnc2)n2ncc(Br)c2n1
O=c1ccc(CNc2cc(-c3ccccc3)nc3c(Br)cnn23)c[nH]1
[O-][n+]1cccc(CNc2cc(C3CCCCC3)nc3c(Br)cnn23)c1
Brc1cnn2c(NCc3cccnc3)cc(-c3ccco3)nc12
[O-][n+]1cccc(CNc2cc(-c3ccco3)nc3c(Br)cnn23)c1
CC(C)(CO)Nc1cc(NCc2cccnc2)n2ncc(Br)c2n1
CCc1cnn2c(NCc3ccc(OC)[n+]([O-])c3)cc(-c3ccccc3F)nc12
[O-][n+]1cccc(CNc2cc(-c3ccccc3Cl)nc3c(Br)cnn23)c1
CC(C)[C@H](CO)Nc1cc(NCc2ccc[n+]([O-])c2)n2ncc(Br)c2n1
Brc1cnn2c(NCc3ccc4[nH]cnc4c3)cc(C3CCCCC3)nc12
[O-][n+]1cccc(CNc2cc(-c3ccccc3)nc3c(Br)cnn23)c1
CCc1cnn2c(NCc3ccc[n+]([O-])c3)cc(-c3ccccc3F)nc12
Brc1cnn2c(NCc3cccnc3)cc(C3CCNCC3)nc12
CS(=O)(=O)N1CCC(c2cc(NCc3cccnc3)n3ncc(Br)c3n2)CC1
[O-][n+]1cccc(CNc2cc(-c3cccs3)nc3c(Br)cnn23)c1
OC[C@H]1CCCC[C@H]1Nc1cc(NCc2cccnc2)n2ncc(Br)c2n1
CC1(C)[C@@H]2[C@@H](CO)N(c3cc(NCc4cccnc4)n4ncc(Br)c4n3)C[C@@H]21
O=c1ccc(CNc2cc(C3CCCCC3)nc3c(Br)cnn23)c[nH]1
CCc1cnn2c(NCc3ccnc(O)c3)cc(-c3ccccc3)nc12
NC(=O)N1CCC(c2cc(NCc3cccnc3)n3ncc(Br)c3n2)CC1
OC[C@H]1CCCC[C@H]1c1cc(NCc2cccnc2)n2ncc(Br)c2n1
CC(=O)N1CCC(c2cc(NCc3cccnc3)n3ncc(Br)c3n2)CC1
O=c1ccc(CNc2cc(-c3ccccc3F)nc3c(Br)cnn23)c[nH]1
Brc1cnn2c(NCc3cccnc3)cc(C3CCCNC3)nc12 (configuration not stated)
CCc1cnn2c(NCc3ccc[n+]([O-])c3)cc(C3CCCCC3)nc12
O=C(C1CC1)N1CCC(c2cc(NCc3cccnc3)n3ncc(Br)c3n2)CC1
[O-][n+]1cccc(CNc2cc(-c3ccc(Cl)cc3)nc3c(Br)cnn23)c1
CCc1cnn2c(NCc3cccnc3)cc(-c3ccccc3)nc12
Oc1cc(CNc2cc(C3CCCCC3)nc3c(Br)cnn23)ccn1
CCOc1ccc(CNc2cc(-c3ccccc3)nc3c(Br)cnn23)c[n+]1[O-]
CC(C)(O)[C@@H]1CCCN1c1cc(NCc2cccnc2)n2ncc(Br)c2n1
[O-][n+]1cc(CNc2cc(-c3ccccc3)nc3c(Br)cnn23)ccc1OCC(F)(F)F
[O-][n+]1cccc(CNc2cc(-c3ccccc3F)nc3c(Br)cnn23)c1
Brc1cnn2c(NCc3cccnc3)cc(C3CCCCC3)nc12
N[C@H]1CC[C@H](Nc2cc(NCc3cccnc3)n3ncc(Br)c3n2)CC1
Cc1ccccc1-c1cc(NCc2ccc[n+]([O-])c2)n2ncc(Br)c2n1
Cn1cnc2cc(CNc3cc(-c4ccccc4)nc4c(Br)cnn34)ccc21
OCC1(Nc2cc(NCc3cccnc3)n3ncc(Br)c3n2)CCCC1
Brc1cnn2c(NCc3cccnc3)cc(-c3ccccc3)nc12
CS(=O)(=O)N1CCCC(c2cc(NCc3cccnc3)n3ncc(Br)c3n2)C1 (configuration not stated)
Brc1cnn2c(NCc3ccc(-c4csnn4)cc3)cc(C3CCNCC3)nc12
O=c1cc(CNc2cc(-c3ccccc3)nc3c(Br)cnn23)cc[nH]1
